This is an account of results in patent publication US20250186503A1, “METHODS AND COMBINATIONS FOR TREATMENT AND T CELL MODULATION” (Juno Therapeutics, Inc., priority 2018, published 2025).

One assay has as its system Nr4a1 (Nur77) reporter. Kind of assay: CAR signaling in Jurkat Nur77 reporter cell line. Type of assay: cell-based. The following applies: anti-CD19 CAR or anti-ROR1 CAR; up to 6 hours. An excerpt:
Cells of a reporter cell line were transduced using lentiviral vectors encoding the anti-CD19 CAR described in Example 14 or an anti-ROR1 CAR were introduced into cells of a Jurkat reporter cell line to assess CAR signaling in the presence of CAR stimulation. The anti-ROR1 CAR contained an anti-ROR1 scFv derived from a murine antibody, an immunoglobulin-derived spacer, a transmembrane domain derived from CD28, a costimulatory region derived from 4-1BB, and a CD3-zeta intracellular signaling domain. The Jurkat reporter cell lines contained a red fluorescent protein inserted by knock-ininto the endogenous Nr4a1 (Nur77) gene.

Assay [1] relates to Granta-519 tumor spheroids. As to the kind of experiment: Granta-519 tumor spheroids, concurrent versus rescue treatment of long-term stimulated CAR T cells. It counts as cell-based, human. The arrangement: cytokine levels at day 5: dose or concentration left out as unconfirmed. As for the experimental part:
The long-term stimulated anti-CD19 CAR-expressing T cells were co-cultured by incubation with Granta-519 tumor spheroids and cells were assessed at various time points for cytolytic function and cytokine function. During concurrent treatments Compound 1 was present during the long-term stimulation but was not present during the co-culture with target cells. During the rescue treatment Compound 1 was not present during the long-term stimulation but was present during the co-culture with target cells.

The test system of assay [2] is Granta-519 tumor spheroids. Kind of assay: Granta-519 spheroid tumor growth assay, rescue treatment after chronic stimulation. It counts as cell-based, human. As for the experimental part: Long-term, chronic stimulation was carried out by stimulation of CAR T cells with 30 μg/mL plate-bound anti-idiotypic (anti-ID) antibody for 6 days, substantially as described in Example 22.
Cells were assessed at various time points for cytolytic function and cytokine function. […] Averaged measurement of tumor spheroid size at Day 9 following co-culture with CAR-T cells was assessed. […] The log 2 fold change compared to control cells (chronically stimulated cells that had not been treated with immunomodulatory compound) is shown in FIG. 49C.

Assay [3] has as its system A549.CD19 tumor spheroids. As to the kind of experiment: A549.CD19 tumor spheroid model, rescue treatment after chronic stimulation. It counts as cell-based, human. As for the experimental part:
An A549.CD19 tumor spheroid model was further used to elucidate the T cell modulatory activity of the compounds. A549.CD19 tumor spheroid growth is insensitive to monotherapy treatment with the immunomodulatory compounds. […] Averaged measurement of tumor spheroid size at Day 9 following co-culture with CAR-T cells was assessed. […] The log 2 fold change compared to control cells (chronically stimulated cells that had not been concurrently treated with immunomodulatory compound) is shown in FIG. 50B.

Assay [4] concerns anti-BCMA CAR T cells. Kind of assay: Cytokine production of anti-BCMA CAR T cells at low, medium and high BCMA bead stimulation. It counts as cell-based, human. As for the experimental part:
In another study, recombinant human BCMA-conjugated beads were used to stimulate CAR T cells at various concentratons to titrate the magnitude of stimulation, either low (5 μg/mL), medium (50 μg/mL), and high (200 μg/mL) stimulation.

Another assay deals with RPMI-8226. Kind of assay: Cytolytic activity against RPMI-8226 after seven days incubation with BCMA-conjugated beads. Type of assay: cell-based, human. As for the experimental part: Cytolytic activity of CAR+ T cells after incubation with BCMA-conjugated beads was assessed by incubation with the BCMA-expressing target cell line RPMI-8226, which is a BCMA+multiple myeloma cell line. […] The number of viable cells was normalized to cells at day 0 prior to incubation with the RPMI-8226 target cells.

Assay [5] deals with OPM-2. As to the kind of experiment: Cytokine production of anti-BCMA CAR T cells incubated with OPM-2 target cells. Type of assay: cell-based, human.
Assay [6] has as its system OPM-2. As to the kind of experiment: Cytolytic activity of anti-BCMA CAR T cells against OPM-2 target cells. Type of assay: cell-based, human. As for the experimental part:
[…]. The OPM-2 cells were labeled with NucLight Red (NLR) to permit tracking of target cells by microscopy substantially as described above. […] […].
[…]. Cytolytic activity was measured by loss of red fluorescent cells. […].

Another assay has as its system anti-CD19 CAR+ T cells. Kind of assay: CD25 and PD-1 surface expression on anti-CD19 CAR+ T cells incubated with K562-CD19 cells. Type of assay: cell-based, human. As for the experimental part: After 120 hours of culture, cells were isolated and assessed by flow cytometry for surface expression of CD25 or PD-1 in CD4+ or CD8+ T cell subsets.
Assay [7] relates to anti-BCMA CAR T cells. Kind of assay: Cytokine expression of anti-BCMA CAR T cells stimulated with BCMA-conjugated beads. Type of assay: cell-based, human. The following applies: 24 hours. As for the experimental part: Cryofrozen anti-BCMA CAR T cells, produced substantially as described in Example 1 and formulated at a 1:1 ratio of CD4+ and CD8+ T cells, were thawed.
Twenty four hours after addition of BCMA-conjugated beads, the presence of TNF-α, IFNγ, and IL-2 in culture supernatants was assessed.
In a further exemplary study, two different anti-BCMA CAR T cell compositions were generated from different donors, each containing T cells expressing the same anti-BCMA CAR. The cells were thawed and incubated with beads (diameter about 4.5 pm) from a 5 μg/mL or 200 μg/mL BCMA-conjugated bead composition generated as described in Example 1. […] Twenty four hours after addition of BCMA-conjugated beads, IL-2 production by the anti-BCMA CAR+ T cells was assessed in culture supernatants.
The cells were gated on transduced, live CD3+ cells, and assessed by flow cytometry for intracellular cytokine accumulation of IFNγ and TNFα in CD4+ and CD8+ cells.

Assay [8] relates to PD-L1-mediated inhibition. Kind of assay: Cytokine production with BCMA/PD-L1 conjugated beads. The following applies: 1 μM, 24 hours, vs vehicle. Type of assay: cell-based, human. As for the experimental part:
In another study, to explore whether the lenalidomide-induced potentiation of CAR T activation and cytokine production could override PD-L1-mediated inhibition, cells were cultured in the presence of BCMA beads generated as described in Example 9, with or without additional conjugation of human recombinant PD-L1-Fc. […] Cytokine production was measured in the supernatant.

The mark [9] stands for this setting: 5 days co-culture, rescue treatment.

In the case of `Cc1nc2cccc(N)c2c(=O)n1C1CCC(=O)NC1=O` (stereo not drawn) [Compound 1, 3-(5-amino-2-methyl-4-oxo-4H-quinazolin-3-yl)-piperidine-2,6-dione], in the assay on Nr4a1 (Nur77) reporter, the “Nur77 reporter signal following CAR-specific stimulation” value is on record as “increased”. In addition, the “cytokine levels at day 5” value in [1] (concurrent treatment) was “enhanced IFN-γ”; in assay [1] (delayed treatment with Compound 1) it was “enhanced production of both IFN-γ and TNF-α”. Moreover, the “tumor spheroid size at day 9” value in [1] (concurrent treatment with long-term stimulation) and in assay [1] (subsequent treatment after long-term stimulation) was “concentration dependent decrease in tumor volume” in each case.

For the compound `O=C1CC[C@H](N2Cc3c(OCc4ccc(CN5CCOCC5)cc4)cccc3C2=O)C(=O)N1` [Compound 2, (S)-3-[4-(4-morpholin-4-ylmethyl-benzyloxy)-1-oxo-1,3-dihydro-isoindol-2-yl]-piperidine-2,6-dione], the Granta-519 spheroid growth entry in assay [2] (0.001 μM or 0.01 μM rescue, Day 9) is “improved CAR T cell cytolytic”. For the same compound, the IFNγ in supernatant entry in [2] (setting [9]) and in [3] (setting [9]) was “statistically significant increase” throughout. Also, in assay [2] (rescue treatment), the “improvement in cytolytic function compared with Compound 1” value is listed as “greater following rescue treatment with Compound 2 than Compound 1”. Also, the A549.CD19 spheroid growth result in [3] (0.001 μM, 0.01 μM, or 0.1 μM rescue, Day 9) is “improved CAR T cell cytolytic”. Moreover, the “number of CAR T cells in co-cultures with tumor spheroids” value in [3] (day 5) was “increased”.

For the compound `Nc1cccc2c1CN(C1CCC(=O)NC1=O)C2=O` (stereo not drawn) [lenalidomide, 3-(4-amino-1-oxo-1,3-dihydro-2H-isoindol-2-yl)piperidine-2,6-dione], the “percentage of IFN-γ+ and TNF-α+ intracellular staining” value with anti-BCMA CAR T cells [4] (0.1 or 1.0 μM, all stimulation levels, CD4+ and CD8+ CAR T cells) is given as “increased”. The “percentage of IL-2+ CAR+ T cells” value was “increasing” in the assay on anti-BCMA CAR T cells [4] (5-μg stimulation); “decreasing” in the assay on anti-BCMA CAR T cells [4] (50-μg and 200-μg stimulation). Moreover, the “CAR T cytokine production” value in the assay on anti-BCMA CAR T cells [4] (absence of stimulation) is recorded as “no effect”. In the assay on anti-BCMA CAR T cells [4] (medium stimulation (50 μg/mL BCMA beads), 24 hours), the IFN-γ secreted entry is “donor-dependent increases”. In addition, in the assay with RPMI-8226 (5 μM), the “RPMI 8226 target cell viability without CAR T cells” value is “did not directly influence target cell viability”. For the same compound, the “cytolytic activity of the CAR+ T cells” value in the assay with RPMI-8226 (5 μM preincubation during the seven day bead incubation) is given as “increased”. For the same compound, the killing activity entry in the assay on RPMI-8226 (lenalidomide present during the cell killing assay) is “did not substantially affect”. Further, the “IFNγ, IL-2 and TNF-α production and/or accumulation” value with OPM-2 [5] (0.01-10 μM, E:T 1:1, 24 hours, dose-dependent) is “enhance”. Besides, the “IFN-γ, IL-2 and TNF-α production on co-culture with OPM-2” value in the assay with OPM-2 [5] (all CAR T donors, concentration-dependent) was “significantly increased”. In addition, the “cytolytic activity of anti-BCMA CAR+ T cells against OPM-2” value in the assay with OPM-2 [6] (0.01-10 μM, E:T 1:1, 7 days, four donors, dose-dependent) is “enhance”. Besides, the “antigen-specific anti-BCMA CAR-T cytolytic activity and cytokine production” value in the assay on OPM-2 [6] (healthy donor and pomalidomide-refractory multiple myeloma patient CAR T, 0.01-10 μM) is reported as “increased”. In addition, in the assay with OPM-2 [6] (three healthy donors and one IMiD-refractory patient, all donors), the “anti-BCMA CAR T cytolytic activity against OPM-2” value was “Increased”. For the same compound, the “CD25 expression in CD4+ and CD8+ T cells” value in the assay on anti-CD19 CAR+ T cells (1600 nM, E:T 2.5:1, 120 hours) was “higher levels”. In addition, the “surface expression of PD-1 in CD4+ or CD8+ T cells” value with anti-CD19 CAR+ T cells (up to 1600 nM, 120 hours) is given as “No difference”. Also, in the assay on anti-BCMA CAR T cells [7] (0.1 μM or 1 μM, 5, 50 or 200 μg/mL BCMA beads), the “intracellular IFNγ and TNFα cytokine production” value is “increased”. In the assay on anti-BCMA CAR T cells [7] (1 μM or 5 μM, 5 or 200 μg/mL BCMA beads, two donors), the “IL-2 production in culture supernatants” value was “increased”. In addition, the “BCMA-induced CAR+ T cell cytokine production (TNF-α, IFNγ, IL-2 in supernatants)” value in the assay on anti-BCMA CAR T cells [7] (5 μM, 5 or 50 μg/mL BCMA beads) is on record as “increased”. The “secreted cytokine levels in the presence of PD-L1” value in [8] is reported as “potentiated”.
